Entries after “also recorded” stand apart in the source; their conditions may differ.
How the values were obtained:
[1] = system: HeLa, RAW264.7, HepG2, and MCF-7 cells; test: TAMRA delivery assay (flow cytometry, confocal microscopy); type: cell-based; conditions: 0.5 μM CPP-TA + 4.5 μM CPP-C, 30 minutes at 4° C., 22° C., or 37° C.
Description: To determine the effect of the PNA cargo on delivery, we labeled CPPs, lacking the PNA705 cargo, with the fluorophore TAMRA on a C-terminal cysteine residue (CPP-TA) and measured delivery to multiple cell types. TAMRA-labelled CPPs, mixed with unlabeled CPPs at a 1:10 ratio in serum-free DMEM for a final concentration of 5 μM total peptide, was added to HeLa, RAW264.7, HepG2, and MCF-7 cells in 12-well cell culture plates and incubated for 30 minutes at 4° C., 22° C., or 37° C. prior to flow cytometric analysis (FIGS. 9-16). […] Delivery of TAMRA was verified by confocal microscopy for each cell type.
Hela, RAW264.7, HCT116, HepG2, and MCF-7 cells were plated in 12-well plates at 100,000 cells/well. After 24 hours, cells were gently washed in PBS, topped with 500 μl of CPP-TA solution containing 0.5 μM CPP-TA+4.5 uM CPP-C in sfDMEM without phenol red, and incubated for 30 min at either 4° C., 23° C., or 37° C. The incubation solution was aspirated and cells were treated with 100 μl 0.025% Trypsin for 3 minutes at 23° C. 500 μl DMEM containing 2% FBS, 125 nM Sytox Green, and 20 mM HEPES was used to suspend the cells. Cells were transferred to a filter-topped flow cytometry tube and analyzed on a BD™ LSR II flow cytometer. Cells displaying a normal morphology were gated and first analyzed for GFP fluorescence using the 488 nM laser. GFP negative cells were used to generate a histogram of TAMRA fluorescence, measured with the 543 nM laser.
Cells were treated as described above for the TAMRA delivery assay and immediately imaged to avoid artifacts resulting from fixation. The distribution of TAMRA and Sytox Green was analyzed using a confocal scanning Nikon Eclipse Ti2 inverted microscope using a 40× oil-immersion objective. Sytox Green was excited using the 488 nM laser and TAMRA was excited using the 543 nM laser.

[2] = system: Hela cells stably transfected with mCherry and GFP1-10; test: Split GFP assay (GFP-11 delivery); type: cell-based; conditions: 40 μM peptide-GFP-11, 37° C.
Description: To test the ability of CPPs to deliver other cargoes, specifically a protease-sensitive peptide cargo, we modified the well-known split-GFP assay. CPPs were tested for the ability to deliver the polar 16-residue GFP-11 peptide across the membrane barrier. This peptide rescues the fluorescence of the cytosolic endogenous, non-fluorescent GFP1-10 protein. Here, we stably transfected Hela cells with a plasmid containing the full length mCherry and the non-fluorescent GFP1-10. Following incubation with CPP-GFP-11 constructs at multiple concentrations and temperatures for 30 minutes in serum free DMEM, cells were analyzed by flow cytometry for mCherry and GFP fluorescence (FIG. 17). Live cells expressing mCherry (˜50% of the total cells) were gated and their GFP fluorescence was analyzed. Unlike the luciferase splice correction assay where a single corrected mRNA transcript serves as template for many molecules of functional luciferase, the split GFP assay is stoichiometric; a single GFP-11 peptide can bind to a single GFP1-10 protein producing a finite fluorescent response.
Hela cells were transfected with p_mCherry-GFP1-10 (Addgene plasmid #78591) using LIPOFECTAMINE® 3000 (ThermoFisher). Single mCherry positive cells were sorted into 96-well plates using a BD™ FACSARIA™ cell sorter and colonies were maintained under G418 selection at […]. Stably transfected cells were plated in 12-well plates at 100,000 cells/well and grown overnight in complete DMEM. Cells were washed in PBS and incubated in 500 μl of CPP-GFP-11 solution at variable concentrations at 23° C. and 37° C. for 30 minutes. The CPP-GFP-11 solution was aspirated and 100 μl of 0.025% trypsin solution was added to each well. After detachment, cells were suspended in 500 μL of PBS+2% FBS and 20 mM HEPES. Cells were analyzed using a BD™ LSRII flow cytometer. Cells displaying a normal morphology were gated and first analyzed for mCherry fluorescence using the 543 nM laser. mCherry+ cells were used to generate a histogram of GFP fluorescence measured with the 488 nM laser.

[3] = system: Hela cells stably transfected with mCherry and GFP1-10; test: Split GFP assay (GFP-11 delivery); type: cell-based; conditions: 40 μM peptide-GFP-11, 22° C.
P. aeruginosa [4] = test: Induced resistance, ten serial passages of broth sterilization assays; type: cell-based; conditions: ⅔ serially diluted antibiotics, overnight growth
Source text: Bacterial resistance against peptide antibiotics is known to occur, although it is reportedly more difficult to induce than resistance against conventional antibiotics. P. aeruginosa can gain resistance to some AMPs through selection for a variant with altered outer membrane composition. We used P. aeruginosa in a screen (FIG. 36) to select against rapid resistance. We tested if P. aeruginosa can stably gain resistance to the rationally designed peptides described herein and we compared their ability to adapt to conventional antibiotics under the same conditions. For ten serial passages, we performed broth sterilization assays using ⅔ serially diluted antibiotics with overnight growth. For each passage, we used the bacteria that grew at the highest antibiotic concentration to expand overnight for the subsequent generation. […] All of the conventional antibiotics promoted increasing resistance, and two promoted complete resistance by 10 passages.

S. aureus = test: Radial diffusion in the presence of RBCs; type: cell-based; design: key: The ↑ represents the improvement in performance that would be desired for a viable in vivo antimicrobial peptide; ↓: The symbol represents a regression in desired behavior; *=p<0.05; **=p<0.01; ***=p<0.001; conditions: change versus parent sequence; paired t-test
Description: Underlay agarose was prepared by adding 5 g of low EEO agarose and 0.03 g of TSB to 500 mL of 10 mM phosphate buffer (pH=7.4). Overlay agarose was prepared by adding 5 g of low EEO agarose and 30 g of TSB to 500 mL of 10 mM phosphate buffer (pH=7.4). Both solutions were heated until the agarose melted and then were autoclaved. To a rectangular, one-well plate, 20 mL of underlay agarose, inoculated with 8×10^6 CFUs of bacteria, was added. A sterile, 96-well plate replicator from Sigma-Aldrich was set in the molten agarose and removed one the agarose solidified. Antibiotic was prepared at 4 times the final desired concentration. For the antibiotic standard, a serial dilution of 3:4 across a 96-well plate was performed followed by 1:4 dilution with PBS. Otherwise, the peptide was diluted to 20 μM with RBCs and/or serum to give between 2% (1×10^8 cells/mL) and 20% (1×10^9 cells/mL). Solutions were incubated with gentle shaking for 30 minutes at 37° C. […]. Overlay was added, and the plate was incubated upside down overnight. Surface growth was cleared, the plates were sterilized with 25% methanol and 5% acetic acid. Zones of inhibition were photographed and analyzed using ImageJ. (FIG. 21)
The engineered peptide sequences and their derivation from parent sequences is shown, along with the underlying hypothesis described for the first set of peptides (Table 4) and the second set (Table 5). We performed statistical testing for performance in antimicrobial assays in the presence and absence of RBCs, as well as for cytotoxicity. The broth dilution results were tested using a two sample t-test (N=6-22). The radial diffusion results were tested using a paired t-test (N=4). The cytotoxicity results were tested using a paired t-test (N=3). The ↑ represents the improvement in performance that would be desired for a viable in vivo antimicrobial peptide. This corresponds to a decrease in MIC values (increased potency) and decreased cytotoxicity. The symbol represents a regression in desired behavior. (*=p<0.05, **=p<0.01, ***=p<0.001).

P. aeruginosa biofilms = test: Activity against P. aeruginosa biofilms; type: cell-based; conditions: 25 μM
Description: Bacterial biofilm formation on implanted medical devices is a serious medical problem because these biofilms can lead to life-threatening systemic infections. We tested selected peptides and rationally designed variants against biofilms formed by P. aeruginosa. […] D-NOGCON reduces viable bacteria by 3.6 logs ( 1/3000 reduction) at 25 μM, while the best conventional antibiotic, Ciprofloxacin, reduced viable bacteria by only 1.7 logs ( 1/55 reduction) at 25 μM.

P. aeruginosa [5] = test: Deep wound infection with luminescent P. aeruginosa, whole animal imaging; type: in vivo, mice
Description: Deep wounds in mice were infected with a luminescent strain of P. aeruginosa and monitored with whole animal imaging (FIGS. 35-37). In FIG. 36 infections are just beginning to become established. Areas of red indicate maximal bacterial colonization. No treatments have occurred. Treatment was twice per day, with 50 μg of D-NOGCON peptide in 20 μL of vehicle (0.025% acetic acid) starting 2 hours after infection. […] In the control animals (FIG. 36A), the infection is fully established across the entire wound bed and saturated the detector (red color). In the treated animals (FIG. 36B) the infection is much smaller in area and much lower in intensity, indicating it is under control.

[6] = Safety study of aspirated D-NOGCON; type: in vivo, C57BL/6 mice; conditions: aspiration
Description: (§1) The mice were then treated with D-NOGCON (SEQ ID NO:37), which were instilled in the trachea, exactly as described above for the administration of bacterial infection. Before attempting to treat a P. aeruginosa infection of the lung, we sought to establish a safe dose for administration of the D-NOGCON peptide via aspiration. Based on in vitro toxicity data (FIGS. 28D and 28E), a dosing regimen of 50 μL of D-NOGCON (100 μM) was administered every 8 hours for 3 days (9 doses). As a no treatment control, we administered 50 μL of PBS on the same schedule.
To monitor the toxicity we measured animal behavior and body weight changes (FIG. 29A). […] In the second safety trial, we administered 50 μL of D-NOGCON (50 μM) twice daily, for three days and monitored the animals behavior and body weight changes (FIG. 29B).

P. aeruginosa PA01 = test: Acute pneumonia induced by P. aeruginosa aspiration; type: in vivo, C57BL/6 mice
Description: Female C57BL/6 mice, aged five weeks, were obtained from Charles River Laboratories. Upon receipt, they were allowed at least one week to recover from transport and acclimate to the new housing environment. Mice were maintained on a standard chow diet. Experiments were performed with mice no younger than six weeks and no older than nine weeks. P. aeruginosa PA01 was cultured overnight in tryptic soy broth (TSB) at 37° C. and shaken at 220 RPM. Prior to infecting the mice, the overnight culture was diluted 100-fold into 25-mL of fresh TSB. The culture was grown for three hours before optical density was determined. Previous growth curve experiments allowed us to dilute this newly expanded culture to 1.4×10^8 CFU/mL. To infect an animal, mice were anesthetized using isoflurane and 50 μL of bacterial suspension (7×10^6 CFUs) was administered via intratracheal instillation. Briefly, the anesthetized mice were suspended from wire by their front feet and blunt forceps were used to extract the tongue. The tongue was pulled out and downward. The bacterial suspension was deposited in the back of the throat with a micropipette. The nares of the animal were then covered while the mouse recovered from anesthesia. The chest was gently rubbed to promote inhalation. The mice were made to inhale 15 times before the tongue was released and the mouse was removed from the wire. The animals were then allowed a minute to fully awaken and then returned to their cages.
as §1
Our initial experiment was survival-based. We infected 8 mice (4 for treatment, 4 for vehicle) with the above bacterial load in 50 μL of PBS and allowed 2 hours of recovery prior to the initial treatment administration. After the recovery period, dosing proceeded as it had for the second safety study (50 μL, 50 μM, 2× daily). […] At the 24-hour time point, mice from both groups lost ˜12% body weight (FIG. 30A). Between 24 and 48-hour timepoints, 3 controls and 1 treated animal were sacrificed (FIG. 30B). […] Euthanasia is required in these cases because the animals are clearly suffering and are not able to obtain the nutrients required for survival. […] The lungs of 3 animals from each treatment group were removed, homogenized, and plated on PIA plates to determine the P. aeruginosa CFU burden (FIG. 30C).
A third study reduced the CFU burden of P. aeruginosa to 7×10^6 and mice were treated as with the previous experiment. As in the previous experiment, both treated and untreated animals lost 10-12% of their body weight after 24 hours (FIG. 31A). […] What was not taken into consideration in this experiment was the propensity for infection to spread to other tissues.

GRKKRRQRRRPPQ [TAT, reference compound]
TAMRA delivery (words, rank order) [1]: CPP-2»CPP-3=CPP-1>CPP-4>TAT=penetratin
mCherry positive cells GFP-11 is delivered to [2]: 21%
mCherry positive cells GFP-11 is delivered to [3]: 7%

RRWARLRLVLAY [ARVA]
induction of resistance (P. aeruginosa [4]): promoted total resistance in a few passages

RRWARRLAFAFRR [D-NOGCON]
Radial Diffusion vs. S. aureus (S. aureus): ↑Radial diffusion vs.
reduction of viable bacteria in biofilm (P. aeruginosa biofilms): 3.6 logs
wound infection (luminescence imaging) (P. aeruginosa [5]; after a single day of treatment, 50 μg in 20 μL twice per day starting 2 hours after infection): dramatically reduced compared to the control
integrated luminescence (P. aeruginosa [5]; first 5 days, treated on days 0, 1, and 2): significant protection, slowing of bacterial growth and more rapid clearance over control
summed activity and behavior scores (P. aeruginosa [5]; scale 0 (normal) to 3 each for five items, maximum 15): more normal behavior; also recorded: better summed behavioral scores
tolerability (behavior and body weight changes) ([6]; 50 μL of 50 μM twice daily for three days): sufficiently safe
tolerability (behavior and body weight changes) ([6]; 50 μL of 100 μM every 8 hours for 3 days): too toxic for the animals to tolerate
body weight lost (P. aeruginosa PA01; survival study, 24-hour time point, same in vehicle group): ~12%
survival of the initial 24 hours (P. aeruginosa PA01; survival study, 50 μL, 50 μM, 2× daily, first dose 2 hours after infection): All mice from both treatment groups survived
animals sacrificed (P. aeruginosa PA01; survival study, between 24 and 48-hour timepoints, 4 mice per group, 3 controls sacrificed): 1
body weight lost (P. aeruginosa PA01; survival study, day 3, all animals of both groups): more than 20%
infection titer (P. aeruginosa PA01; survival trial, 50 μL, 50 μM, 2× daily): little improvement in the infection titer
infection titer over control (P. aeruginosa PA01; third experiment, lower CFU burden): little improvement
body weight lost (P. aeruginosa PA01; third study, after 24 hours, same in untreated animals): 10-12%
CFU burden versus untreated (P. aeruginosa PA01; third study, two doses over 24 hours): non-significant increase

From patent US11266743B2, “Peptide compositions and methods of use thereof” (priority 2017, dated 2022)
